Measurements from patent publication US20240216397A1, “COMPOSITION FOR AMELIORATING SKIN TISSUE ABNORMALITY” (Kyoto University, priority 2021, published 2024).
Where a name gives a salt, the structure may show the parent alone.

Legend:
[1] = system: irritant contact dermatitis induced by sodium dodecyl sulfate (SDS); test: Model mice of SDS-induced irritant contact dermatitis: auricular thickness; assay type: in vivo, C57BL6/J male mice; conditions: 5 mM topical daily for 4 days + 4% SDS daily; vs SDS + EtOH
Protocol: The effect of KUS121 application on irritant contact dermatitis was evaluated. For modeling irritant contact dermatitis, model mice of irritant contact dermatitis induced by sodium dodecyl sulfate (SDS) was used. Ten-week-old C57BL6/J male mice (purchased from Oriental Bioservice, Inc) were used. The mice were anesthetized by subcutaneously injecting 150 μL of three types of mixed anesthesia. Under anesthesia the following substances were applied for 4 days. After 10 μL of 5 mM KUS121 or 90% EtOH was applied to each side of the left auricle, 10 μL of 4% SDS was applied on each side. The substances were applied daily and the auricular thicknesses were measured immediately before the substance applications.

KLK7 = KLK7 mRNA expression in auricular sections of MC903 model mice; assay type: in vivo, C57BL/6N female mice; conditions: mice treated as in Example 1; 5 mM topical + MC903; vs MC903 + EtOH
Protocol: The effect of KUS121 application on atopic dermatitis was evaluated. For modeling atopic dermatitis, model mice of atopic dermatitis-like skin inflammation induced by repeated applications of MC903, an active vitamin D3 analog, were used. Eight-week-old C57BL/6N female mice were used (purchased from SHIMIZU Laboratory Supplies Co., Ltd.). Under isoflurane anesthesia, the following substances were applied for 10 days. After 10 μL of 5 mM KUS121 (solvent: 90% EtOH) or 90% EtOH was applied to each side of the left auricle, 10 μL of 100 μM MC903 (solvent: 100% EtOH) was applied on each side. […] The auricular thicknesses were measured immediately before the substance application using a constant pressured thickness measuring instrument (Tecloc). The thicknesses were measured immediately before the first substance application and then every other day for ten days. In addition, the effect of KUS121 alone was evaluated by the following substance applications. […] The auricular thicknesses were measured immediately before the first substance application and then every other day for ten days. […] The blood was allowed to stand at room temperature for at least 30 minutes, the serum was separated by centrifugation (1500×g, 10 minutes), and the serum levels of immunoglobulins (IgE and IgG1) was measured using Elisa kit (Bethyl Laboratories). […]

IgG1 = test: Serum IgG1 level (Elisa kit) in MC903 model mice; assay type: in vivo, C57BL/6N female mice; conditions: serum on day 11; 5 mM topical daily + MC903; vs MC903 + EtOH
Protocol: (§1) The effect of KUS121 application on atopic dermatitis was evaluated. For modeling atopic dermatitis, model mice of atopic dermatitis-like skin inflammation induced by repeated applications of MC903, an active vitamin D3 analog, were used. Eight-week-old C57BL/6N female mice were used (purchased from SHIMIZU Laboratory Supplies Co., Ltd.). Under isoflurane anesthesia, the following substances were applied for 10 days. After 10 μL of 5 mM KUS121 (solvent: 90% EtOH) or 90% EtOH was applied to each side of the left auricle, 10 μL of 100 μM MC903 (solvent: 100% EtOH) was applied on each side. […] The auricular thicknesses were measured immediately before the substance application using a constant pressured thickness measuring instrument (Tecloc). The thicknesses were measured immediately before the first substance application and then every other day for ten days. In addition, the effect of KUS121 alone was evaluated by the following substance applications. […] The auricular thicknesses were measured immediately before the first substance application and then every other day for ten days. […] The blood was allowed to stand at room temperature for at least 30 minutes, the serum was separated by centrifugation (1500×g, 10 minutes), and the serum levels of immunoglobulins (IgE and IgG1) was measured using Elisa kit (Bethyl Laboratories).

Filaggrin (Flg) = test: Flg mRNA expression in auricular sections, real-time PCR; assay type: in vivo, C57BL/6N female mice; conditions: auricular sections day 11; Gapdh internal standard; 5 mM topical + MC903; vs MC903 + EtOH and EtOH alone
Protocol: (§2) After the blood collection in Example 1, the mice were sacrificed by cervical dislocation and auricular sections were collected. Some of the auricular sections were paraffin-embedded and other sections were served for RNA extraction. The paraffin-embedded sections were observed by hematoxylin-eosin (HE) staining. RNA was extracted from the sections and cDNA was synthesized. The expression levels of various genes were analyzed by real-time PCR with SYBR Green using each cDNA as a template. Gapdh was used as an internal standard.

IgE = test: Serum IgE level (Elisa kit) in MC903 model mice; assay type: in vivo, C57BL/6N female mice; conditions: serum on day 11; 5 mM topical daily + MC903; vs MC903 + EtOH
Protocol: as §1

Keratin 6a (Krt6a) = test: Krt6a mRNA expression in auricular sections, real-time PCR; assay type: in vivo, C57BL/6N female mice; conditions: auricular sections day 11; Gapdh internal standard; 5 mM topical + MC903; vs MC903 + EtOH
Protocol: as §2

[2] = system: epidermal thickening and infiltration of inflammatory cells into the dermis; test: HE staining of auricular sections of MC903 model mice; assay type: in vivo, C57BL/6N female mice; conditions: auricular sections day 11; 5 mM topical daily + MC903; vs MC903 + EtOH
Protocol: as §2

skin barrier function = test: Transepidermal water loss and auricular thickness in MC903-applied mice (skin barrier function); assay type: in vivo, C57BL6/N female mice; conditions: 5 mM topical daily for 12 days + MC903 every other day; vs MC903 + EtOH
Protocol: The effect of KUS121 application on skin barrier function was evaluated by determining transepidermal water loss. Six- to eight-week-old C57BL6/N female mice (purchased from Oriental Bioservice, Inc) were used. The mice were anesthetized by subcutaneously injecting 150 μL of three types of mixed anesthesia (1 mg/mL medetomidine hydrochloride, 5 mg/mL mitazolam, 5 mg/mL butorphanol tartrate, solvent: sterile distilled water). Under anesthesia the following substances were applied for 12 days. For each mouse 10 μL of 5 mM KUS121 was applied to each side of the left auricle and 10 μL of 90% EtOH was applied to each side of the right auricle. Some mice were additionally applied with 10 μL of 100 μM MC903 on each side of both auricles every other day; KUS121 or 90% EtOH was applied at first and then MC903 was applied. The levels of transepidermal water loss was determined using APO SCAN AS-VT100 (Asahi Techno Lab. ltd.). The auricular thicknesses were measured immediately before the first substance application and daily for subsequent 12 days. The levels of transepidermal water loss were determined on days 0, 2, 4, 6, 8, 10, 11, and 12 immediately before the substance applications in each day.

[3] = system: atopic dermatitis-like skin inflammation induced by repeated applications of MC903; test: Model mice of MC903-induced atopic dermatitis-like skin inflammation: auricle appearance and auricular thickness; assay type: in vivo, C57BL/6N female mice; conditions: 10 μL of 5 mM topically to each side of left auricle daily for 10 days, MC903 every other day; vs MC903 + EtOH
Protocol: The effect of KUS121 application on atopic dermatitis was evaluated. For modeling atopic dermatitis, model mice of atopic dermatitis-like skin inflammation induced by repeated applications of MC903, an active vitamin D3 analog, were used. Eight-week-old C57BL/6N female mice were used (purchased from SHIMIZU Laboratory Supplies Co., Ltd.). Under isoflurane anesthesia, the following substances were applied for 10 days. After 10 μL of 5 mM KUS121 (solvent: 90% EtOH) or 90% EtOH was applied to each side of the left auricle, 10 μL of 100 μM MC903 (solvent: 100% EtOH) was applied on each side. From the start of the substance application, KUS121 or 90% EtOH was applied daily and MC903 was applied every other day. The auricular thicknesses were measured immediately before the substance application using a constant pressured thickness measuring instrument (Tecloc). The thicknesses were measured immediately before the first substance application and then every other day for ten days. In addition, the effect of KUS121 alone was evaluated by the following substance applications. To each side of the left auricle 10 μL of 5 mM KUS121 was applied daily and to each side of the right auricle 10 μL of 90% EtOH was applied daily. The auricular thicknesses were measured immediately before the first substance application and then every other day for ten days. A blood sample was collected from a buccal vein on day 11 from the first substance application (14 hours after the substance application on day 10). The blood was allowed to stand at room temperature for at least 30 minutes, the serum was separated by centrifugation (1500×g, 10 minutes), and the serum levels of immunoglobulins (IgE and IgG1) was measured using Elisa kit (Bethyl Laboratories).
The experiments were performed as in Example 1, except for KUS187 was used in place of KUS121. The appearance of the auricle was observed and the auricular thicknesses were measured. […] The mice applied with MC903 and treated with EtOH had skin redness, desquamation, and crust as well as increased auricular thickness.

[4] = system: itching in atopic dermatitis-like skin inflammation induced by MC903; test: Itching (scratching behavior) and auricular thickness in MC903 model mice, treatment started on day 6; assay type: in vivo, C57BL/6N female mice
Protocol: The effect of KUS121 application on itching was evaluated. For modeling itching, model mice of atopic dermatitis-like skin inflammation induced by repeated applications of MC903 were used. Eight-week-old C57BL/6N female mice (purchased from SHIMIZU Laboratory Supplies Co., Ltd.) were used. Under isoflurane anesthesia, the following substances were applied for 15 days. 10 μL of 100 μM MC903 was applied on each side of both auricles every three days. To each side of the left auricle 10 μL of 5 mM KUS121 was applied daily and to each side of the right auricle 10 μL of 90% EtOH was applied daily. The application of KUS121 or 90% EtOH was started on day 6 from the first substance application; KUS121 or 90% EtOH was applied at first and then MC903 was applied. On day 12 from the start of the treatment, 1 to 2 hours after the substance application, five mice awakened from anesthesia were left in a shooting box (SHINANO manufacturing CO., LTD, W 25×D 25×H 30 cm) and their behavior was recorded from above using a video camera (Victor). Scratching behavior was evaluated by counting the total number of ear contacts by the front paws and determining the total scratching time by the hind paws within one hour from the start of the recording. The data of the five mice were summed and the total values were adopted as the results.

[5] = system: psoriasis induced by repeated applications of 5% imiquimod cream; test: Model mice of imiquimod-induced psoriasis: auricular thickness; assay type: in vivo, C57BL6/N female mice; conditions: 5 mM topical daily for 6 or 18 days + 5% imiquimod cream; vs imiquimod + EtOH
Protocol: The effect of KUS121 application on psoriasis was evaluated. For modeling psoriasis, model mice of psoriasis induced by repeated applications of 5% imiquimod cream was used. Six- to eight-week-old C57BL6/N female mice (purchased from Oriental Bioservice, Inc) were used. The mice were anesthetized by subcutaneously injecting 150 μL of three types of mixed anesthesia. Under anesthesia the following substances were applied for 6 or 18 days. After 10 μL of 5 mM KUS121 or 90% EtOH was applied to each side of the left auricle, 5 mg of 5% imiquimod cream (MOCHIDA PHARMACEUTICAL CO., LTD.) was applied on each side. KUS121 or 90% EtOH was applied daily and imiquimod cream was applied on days 0, 2, 4, 7, 9, 11, 14, and 16. The auricular thicknesses were measured immediately before the substance applications.

SMILES	auricular thickness [1]	KLK7 expression (messenger RNA) (KLK7)	blood level of IgG1 (IgG1)	Flg expression (messenger RNA) (Filaggrin (Flg))	blood level of IgE (IgE)	Krt6a expression (messenger RNA) (Keratin 6a (Krt6a))	lesions in HE staining (epidermal thickening, infiltration of inflammatory cells such as eosinophils into the dermis) [2]	auricular thickness (skin barrier function)	transepidermal water loss from auricular skin (skin barrier function)	auricular thickness [3]	skin lesion (skin redness, desquamation, crust), appearance of auricle [3]	scratching behavior (number of ear contacts by front paws, scratching time by hind paws within one hour) ([4]; day 12, 5 mM topical daily from day 6, MC903 every three days, vs MC903 + EtOH)	increase of auricular thickness ([4]; treatment started after 6 days from the start of MC903 application, 5 mM topical daily)	auricular thickness [5]
Cc1cc(F)ccc1-c1ccc(/N=N/c2cc(S(=O)(=O)O)c3ccccc3c2N)cn1 [KUS121, 4-amino-3-[6-(4-fluoro-2-methylphenyl)pyridine-3-ylazo]naphthalene-1-sulfonic acid sodium salt]	the increase was suppressed	the increase was suppressed	lower	elevated	lower	weaker	suppressed more strongly	increases were suppressed	increases were suppressed	less increased auricular thickness	less skin lesion	less	suppressed	No difference
CCCCOc1c(C=O)cc(C)cc1-c1ccc(/N=N/c2cc(S(=O)(=O)O)c3ccccc3c2N)cn1 [KUS187, 4-amino-3-[6-(3-formyl-2-butoxy-5-methylphenyl)pyridine-3-ylazo] naphthalene-1-sulfonic acid sodium salt]	–	–	–	–	–	–	–	–	–	less increased auricular thickness	less skin lesion	–	–	–
